{
  "source": "ChEMBL document CHEMBL5360559",
  "about": "“Machine learning- and structure-based discovery of a novel chemotype as FXR agonists for potential treatment of nonalcoholic fatty liver disease” (Eur J Med Chem, 2023)",
  "key": {"HepG2 [1]": {"test_system": "HepG2", "experiment": "Induction of dyslipidemia in human HepG2 cells assessed as downregulation of ApoC3 gene expression at 10 uM by qPCR analysis", "type": "toxicity, cell-based", "conditions": "hepg2, 10 µM"}, "HepG2 [2]": {"test_system": "HepG2", "experiment": "Induction of dyslipidemia in human HepG2 cells assessed as downregulation of ApoA1 gene expression at 10 uM by qPCR analysis", "type": "toxicity, cell-based", "conditions": "hepg2, 10 µM"}},
  "data": [
    {"smiles": "CC[C@H]1[C@@H](O)[C@@H]2[C@H](CC[C@]3(C)[C@@H]([C@H](C)CCC(=O)O)CC[C@@H]23)[C@@]2(C)CC[C@@H](O)C[C@@H]12", "note": "[OBETICHOLIC ACID]", "values": [
      {"measurement": "Activity", "setting": "HepG2 [1]", "value": "Toxic"},
      {"measurement": "Activity", "setting": "HepG2 [2]", "value": "Toxic"}
    ]}
  ]
}
